Consider one cell line from the supplement of paper PMC10307832.

What all share (assay): relative viability (nuclei count vs DMSO), 5 days (fraction); higher = more cells survive
Compound in assay [1]: C1=CC=C2C(=C1)C=CC(=C2SSC3=C(C=CC4=CC=CC=C43)O)O [IPA-3] + CS(=O)(=O)N1CCN(Cc2cc3nc(-c4cccc5[nH]ncc45)nc(N4CCOCC4)c3s2)CC1 [Pictilisib] (partner 1 µM)
The method, boiled down:
(§1)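 For relative viability, nuclei counts in treated wells were divided by those in vehicle wells. Lung cancer cell lines had been pin-tool dosed in 1536-well plates the day after seeding and cultured for 5 days, then fixed and stained in one step (final 0.05% Triton X-100, 1% formaldehyde, 1 ug/ml Hoechst) and imaged at 4×. Doses were one drug alone or a fixed anchor-drug dose plus five library-drug doses (not always all listed) in √10 steps, and values are duplicate-plate medians.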

Compound in assay [2]: C1=CC=C2C(=C1)C=CC(=C2SSC3=C(C=CC4=CC=CC=C43)O)O [IPA-3] + Nc1ncn([C@H]2C[C@H](O)[C@@H](CO)O2)c(=O)n1 [Decitabine] (partner 2 µM)
The method, boiled down: as §1

Compound in assay [3]: Cn1c(Nc2ccc(C(F)(F)F)cc2)nc2cc(Oc3ccnc(-c4ncc(C(F)(F)F)[nH]4)c3)ccc21 [RAF265] + CCNC(=O)c1noc(-c2cc(C(C)C)c(O)cc2O)c1-c1ccc(CN2CCOCC2)cc1 [Luminespib] (partner 0.01 µM)
A digest of the protocol: as §1

Compound in assay [4]: Cn1c(Nc2ccc(C(F)(F)F)cc2)nc2cc(Oc3ccnc(-c4ncc(C(F)(F)F)[nH]4)c3)ccc21 [RAF265] + Nc1ncn([C@H]2C[C@H](O)[C@@H](CO)O2)c(=O)n1 [Decitabine] (partner 2 µM)
A digest of the protocol:
as §1

Consider UMC-11, for which the relative viability in assay [1] (first compound 0.2 µM) came to 0.982; in assay [1] (first compound 0.6325 µM), 0.815; in assay [1] (first compound 2 µM), 0.776; in assay [1] (first compound 6.325 µM) it was 0.665; in assay [1] (first compound 20 µM) it was 0.763; in assay [2] (first compound 0.2 µM) it was 0.682. Moreover, the relative viability in assay [2] (first compound 0.6325 µM) was found to be 0.759; in assay [2] (first compound 2 µM) it was 0.568; in assay [2] (first compound 6.325 µM), 0.362; in assay [2] (first compound 20 µM), 0.594; in assay [3] (first compound 0.01 µM), 0.984; in assay [3] (first compound 0.03162 µM), 1.01. The relative viability was 1.06 in assay [3] (first compound 0.1 µM); 1.01 in assay [3] (first compound 0.3162 µM); 0.936 in assay [3] (first compound 1 µM); 0.621 in assay [4] (first compound 0.01 µM); 0.404 in assay [4] (first compound 0.03162 µM); 0.621 in assay [4] (first compound 0.1 µM). For the same cell line, the relative viability in assay [4] (first compound 0.3162 µM) worked out at 0.604; in assay [4] (first compound 1 µM) it was 0.363.
